Results reported in paper PMC7822874, “Chemoprotective antimalarials identified through quantitative high-throughput screening of Plasmodium blood and liver stage parasites” (Scientific Reports, 2021).
Like-named read-outs stand apart in the source and are kept apart here.

What was measured:
in vitro = conditions: human
[1] = system: P. berghei-ANKA-GFP-LucCON liver stage parasites in HepG2-A16-CD81EGFP cells; assay: P. berghei liver stage Pb-Luc assay, Method 1 (UCSD, 1536-well); type: cell-based, Plasmodium berghei; conditions: for activity at 1 µM / activity at 3 µM: 48 h, average of 2 wells on a 1536 well plate; for activity at 1 µM: 1 uM (compounds provided at 10 mM); for activity at 3 µM: 3 uM (compounds provided at 10 mM); for Max Resp (signal direction of the dose response) / AC50 / Log AC50 (M): Method 1; for Max Resp (signal direction of the dose response): Decrease = decreasing P. berghei viability with dose, Increase = increasing signal, Inactive = no dose response
[2] = system: Plasmodium falciparum Dd2 asexual blood stage parasites; assay: microbe, parasite or virus in culture; parameters: species or system Plasmodium falciparum Dd2 in human erythrocytes; single determination (one 11-point concentration-response curve); conditions: Plasmodium falciparum, DD2, Erythrocyte, 72 h
[3] = HepG2-A16-CD81EGFP cells, uninfected
[4] = Plasmodium berghei, column 11, read-out: Pb-Luc (P. berghei liver stage), % of control, lower concentration, first repeat
[5] = Plasmodium berghei, column 12, read-out: Pb-Luc (P. berghei liver stage), % of control, lower concentration, second repeat
[6] = Plasmodium berghei, column 8, read-out: Pb-Luc (P. berghei liver stage), % of control, higher concentration, first repeat
[7] = Plasmodium berghei, column 9, read-out: Pb-Luc (P. berghei liver stage), % of control, higher concentration, second repeat
[8] = Plasmodium berghei, Hill fit, 50% of maximum activity response, read-out: AC50
[9] = Plasmodium berghei, log10 of molar AC50 from Hill fit, read-out: Log AC50 (converted)
[10] = Hill fit, 50% of maximum activity response, read-out: AC50
[11] = log10 of molar AC50 from Hill fit

Compound	viability at 48 h, 1 µM (in vitro; [3]) [%]	viability at 48 h, 3 µM (in vitro; [3]) [%]	activity at 1 µM [1, 4] [%]	activity at 1 µM [1, 5] [%]	activity at 3 µM [1, 6] [%]	activity at 3 µM [1, 7] [%]	AC50 ([2]; read-out: AC50) [nM]	further results
CCNc1nc(OC)nc(Oc2ccc(=O)n(-c3ccccc3)n2)n1 [MLS000034902-01]	112	101	118	109	117	126	5960	
CCOC(=O)c1nnn(-c2nonc2-n2cccc2)c1CN1CCC(C(=O)OCC)CC1 [MLS000538888-01]	108	103	103	96	92	82	4730	
COc1cc(O)c(C(CCN2CCN(c3ccccc3)CC2)c2ccc3c(c2)OCO3)c(OC)c1 (stereo not shown) [MLS000879526-01]	117	96	105	112	97	92	841	
O=C(Nc1cccnc1)c1cc(-c2cccnc2)nc2ccc(Br)cc12 [MLS000582206-01]	109	104	112	106	80	95	2660	
CCOc1ccc(NC(=O)c2cc3ccccc3cc2O)cc1 [MLS000736677-01]							5310	viability at 48 h (in vitro): 100%; viability at 48 h, 1 µM (in vitro): 100%; Max Resp (signal direction of the dose response) [1]: Decrease; AC50 [1, 8]: 501 nM; AC50 [1, 9]: 501 nM
COc1ccc(NC(=O)CN(C)C(=O)c2oc3c(ccc4ccccc43)c2C)cc1 [MLS002182882-01]	110	104	160	170	88	114	531	
COc1cc2nc(Nc3ccc(C)c(Cl)c3)nc(N)c2cc1OC [MLS001199666-01]	109	100	99	121	97	111	2110	
COc1cc(O)c(C(CCN2CCN(c3ccccc3)CC2)c2cc(OC)c(OC)c(OC)c2)c(OC)c1 (stereo not shown) [MLS000879517-01]	96	102	87	82	84	91	1330	
Cc1[nH]c2c(C)cccc2c(=O)c1Br [MLS000036254-01]	107						5310	viability at 48 h (in vitro; [3]): 107%; Max Resp (signal direction of the dose response) [1]: Decrease; AC50 [1, 10]: 1580 nM; Log AC50 (M) [1, 11]: -5.800 M; AC50 [1, 8]: 1120 nM; AC50 [1, 9]: 1120 nM
CC(C)COc1ccc(C(=O)N/C(=C\c2cccc([N+](=O)[O-])c2)C(=O)OC(C)C)cc1 [MLS000574251-01]	111	102	90	84	65	69	531	
CC(C)(C)OC(=O)N1CCC(CC2CC(c3ccccc3)=NO2)(C(=O)NCc2ccccc2)CC1 (stereo not shown) [MLS002174287-01]	111	95	140	108	65	115	2660	
COc1ccc(Cc2nnc(NC(=O)c3ccc(OC)cc3OC)s2)cc1 [MLS001211969-01]	100	104	125	130	128	128		
COc1ccc(NC2=NC3(CCCCC3)N=C(N)N2)cc1 [MLS000090248-01]	113	97	133	110	100	80		
Cn1c(S)nc2sc3c(c2c1=O)CCC(C(C)(C)C)C3 (stereo not shown) [MLS001198408-01]	97	107	80	94	69	61	5310	
Oc1ccccc1Nc1nc(NCc2ccco2)c2ccccc2n1 [MLS000693437-01]	95.6						2990	viability at 48 h (in vitro; [3]): 95.6%; Max Resp (signal direction of the dose response) [1]: Inactive
Cc1ccc(/C=N/Nc2cc(C)nc(NCc3ccccc3)n2)cc1 [MLS000769291-01]	98	95	97	106	138	126	5310	
COc1ccc(-c2c(C)nn3c(N)c(C#N)cnc23)cc1OC [MLS000718813-01]							1680	viability at 66 h (in vitro; [3]): 108%; Max Resp (signal direction of the dose response) [1]: Decrease; AC50 [1, 10]: 1410 nM; Log AC50 (M) [1, 11]: -5.850 M; AC50 [1, 8]: 1260 nM; AC50 [1, 9]: 1260 nM
COc1cccc(CNCC(O)(c2ccc(Cl)cc2)c2ccc(Cl)cc2)c1 [MLS000325699-01]	106	101	124	99	99	98		
c1cncc(-c2nnc(-c3cccnc3)nn2)c1 [MLS000075752-01]	98	100	110	109	109	117		

Compound	viability at 48 h, 1 µM (in vitro; [3]) [%]	viability at 48 h, 3 µM (in vitro; [3]) [%]	activity at 1 µM [1, 4] [%]	activity at 1 µM [1, 5] [%]	activity at 3 µM [1, 6] [%]	activity at 3 µM [1, 7] [%]	AC50 ([2]; read-out: AC50) [nM]	further results
Cc1cc(NC2C3CC4CC(C3)CC2C4)n2nnnc2n1 (stereo not shown) [MLS000033680-01]	99	108	124	128	108	131		
Cc1cc(C)cc(Nc2cc(C)nc3nc(C)nn23)c1 [MLS000116612-01]	112						5310	viability at 48 h (in vitro; [3]): 112%
COc1cccc(Cn2c(Oc3ccccc3)nc3c2c(=O)n(C)c(=O)n3C)c1 [MLS000038011-01]	107	98					4730	
O=C1C2=C(Nc3ccccc3SC2c2ccco2)c2ccccc21 (stereo not shown) [MLS000108310-01]	110	99					4730	
CC(C)Oc1ccc(CCc2nnc(S)n2Cc2ccccc2)cc1 [MLS000582839-01]	101	103					5310	
CCN(CC)CCC(c1ccc2c(c1)OCO2)c1c(O)cc(OC)cc1OC (stereo not shown) [MLS000879498-01]							4220	viability at 66 h (in vitro; [3]): 103%
OC(CNC1CCCCCC1)COc1cccc2ccccc12 (stereo not shown) [MLS001174634-01]	103	98					1880	
Oc1ccccc1CN1CCCC(N2CCN(c3cccc(C(F)(F)F)c3)CC2)C1 (stereo not shown) [MLS000998830-01]	103	105					1330	
Cc1cc(C)cc(N(CC(=O)NCc2ccc3c(c2)OCO3)C(=O)CCC(=O)Nc2ccccn2)c1 [MLS000032464-01]							4220	viability at 66 h (in vitro; [3]): 96.4%
CCN1CCCC1CNc1ncnc2c1[nH]c1ccc(Cl)cc12 (stereo not shown) [MLS000041736-01]	98.5							viability at 48 h (in vitro; [3]): 98.5%; AC50 [2]: 2990 nM
Cc1ccc(NC(=O)CC[S+](=O)([O-])c2cc(Br)cc3c2N(C(=O)C2CC2)CC3)cc1 [NCGC00107230-01]							2370	viability at 66 h (in vitro; [3]): 101%
O=c1c2ccccc2nc(/C=C/c2cc(Br)ccc2O)n1CCCO [MLS001197097-01]							9440	viability at 66 h (in vitro; [3]): 103%
O=S(=O)(c1ccc2ccccc2c1)N1CCN(/C(S)=N/c2ccccc2F)CC1 [MLS000760214-01]	103	102					4220	
COc1ccccc1N1CCN(C(=O)c2ccc3c(=O)n(Cc4ccc5c(c4)OCO5)c(=O)[nH]c3c2)CC1 [MLS001028591-01]							2990	viability at 66 h (in vitro; [3]): 94%
COc1ccccc1NC(=O)CN1CCN(C(=O)c2ccco2)CC1 [MLS000122729-01]	101	101	130	101	50	80		
Cc1cccn2c(=O)c3cc(C(=O)NC4CCCC4)c(=N)n(CCc4ccccc4)c3nc12 [MLS001221260-01]	95	92					1880	
O=C(Nc1cccc(-c2nc3ccccc3[nH]2)c1)c1ccc(C(=O)Nc2cccc(-c3nc4ccccc4[nH]3)c2)cc1 [MLS000766212-01]	105	96					2660	
O=C(c1ccc([N+](=O)[O-])o1)N1CCN(c2nc3c(F)cc(F)cc3s2)CC1 [MLS001234228-01]	103	108					5960	
